# Experimental data taken from patent US6589967B1, “Oxime O-ether compounds and fungicides for agricultural and horticultural use” (Nippon Soda Co. Ltd., priority 1999, dated 2003).
# System: snap bean gray mold fungus (Botrytis cinerea)
# Assay: Test on Kidney Bean Gray Mold Control
# Type: in vivo
# Details: 50 ppm active ingredient, cut Kidney bean flowers (Nagauzura) dipped, spores sprayed, placed on detached leaves, 7 days at 20° C., high humidity
# Description: Now, explanation is made on how the compounds according to the present invention are effective as an active ingredient of a fungicide for controlling various plant diseases with reference to Test examples described later. In the Test Examples, the control efficacy is determined by visually checking the infested state of the test plants at the time of observation, namely, checking the damage to the host plants and the developing state of the disease-causing fungus appeared on leaves, stems, etc. of the test plants, compared to the control test plants which are healthy. Flowers of Kidney bean (variety; Nagauzura) grown in a flat vessel for culturing seedlings are cut, and the cut flowers were dipped into a solution prepared by diluting the emulsifiable concentrate prepared for the compound of the present invention at a concentration of 50 ppm based on the active ingredient. After the dipping, the flowers were dried at a room temperature. Then, spore solution of snap bean gray mold fungus (Botrytis cinerea) was sprayed to the flowers. The flowers sprayed with spores of the gray mold fungus were placed on the leaves which were detached from healthy Kidney bean plants, and those leaves were placed in a room being maintained at 20° C. and high humidity with repeated lighting of 12 hours intervals, and the Kidney bean leaves were incubated in the room for 7 days. Then, the infestation degree by the fungus on the leaves was checked in comparison to the control healthy leaves to determine the control efficacy. […] Note that the compound numbers in the following correspond to the same compound numbers in the Table 1. Compound Nos. 1, 3, 6, 7, 11, 12, 13, 14, 15, 18, 20, 21, 22, 23, 25, 26, 27, 29, 36, 48, 49, 192, 194, 195, 196, 198, 201, 203, 204, 207, 208, 209, 210, 213, 216, 219, 220, 222, 223, 224, 225, 227, 228, 229, 231, 233, 234, 235, 236, 237, 239, 240, 242
row,SMILES,control performance (control efficacy)
1,COc1cccc(F)c1CON=Cc1cc(Cl)cc(C)n1 [compound 220],excellent control performance
2,"COc1cccc(C)c1CON=C(C)c1cc(C)cc(C)n1 [Compound No. 7, 1-(4,6-Dimethyl-2-pyridinyl)ethanone O-[(2-Methoxy-6-methylphenyl)methyl] Oxime]",excellent control performance
3,COc1cccc(OC)c1C(C)ON=Cc1cc(C)cc(C)n1 (racemic) [compound 239],excellent control performance
4,"COc1cccc(F)c1CON=C(C)c1cc(C)cc(C)n1 [Compound No. 1, 1-(4,6-Dimethyl-2-pyridinyl)ethanone O-[(2-Fluoro-6-methoxyphenyl)methyl]oxime]",excellent control performance
5,COc1cccc(C)c1CON=C(C)c1cc(C)ccn1 [compound 36],excellent control performance
6,COc1ccc(CON=C(C)c2cc(C)cc(C)n2)c(O)c1 [compound 14],excellent control performance
7,COc1ccc(F)c(OC)c1CON=Cc1cc(C)cc(C)n1 [compound 48],excellent control performance
8,CCC(=NOCc1c(OC)cccc1OC)c1cc(C)cc(C)n1 [Compound No. 20],excellent control performance
9,"COc1cccc(OC)c1CON=Cc1cc(C)cc(C)n1 [Compound No. 196, 4,6-Dimethyl-2-pyridinecarboxyaldehyde O-[(2,6-Dimethoxyphenyl)methyl] Oxime]",excellent control performance
